Source: the NIST ThermoML archive (doi:10.1021/acs.jced.8b00979)

Assay: xn = mol fraction of the nth substance listed
Details: 100 kPa, Liquid; for viscosity: Capillary tube (Ostwald / Ubbelohde) method; for mass density: Vibrating tube method

CCCC(C)O (stereo not given) [pentan-2-ol] + CCCCCO
Details | mass density [kg/m3] | viscosity [mPa·s]
288.15 K, x2 = 0 | 813.34 | 5.057
288.15 K, x2 = 0.1 | 813.91 | 4.988
288.15 K, x2 = 0.2 | 814.5 | 4.929
288.15 K, x2 = 0.298 | 815.05 | 4.881
288.15 K, x2 = 0.4 | 815.6 | 4.842
288.15 K, x2 = 0.5 | 816.13 | 4.806
288.15 K, x2 = 0.601 | 816.66 | 4.772
288.15 K, x2 = 0.699 | 817.15 | 4.741
288.15 K, x2 = 0.798 | 817.63 | 4.714
288.15 K, x2 = 0.901 | 818.1 | 4.697
293.15 K, x2 = 0 | 809.38 | 4.174
293.15 K, x2 = 0.1 | 810 | 4.141
293.15 K, x2 = 0.2 | 810.63 | 4.114
293.15 K, x2 = 0.298 | 811.21 | 4.095
293.15 K, x2 = 0.4 | 811.79 | 4.079
293.15 K, x2 = 0.5 | 812.36 | 4.065
293.15 K, x2 = 0.601 | 812.92 | 4.054
293.15 K, x2 = 0.699 | 813.44 | 4.047
293.15 K, x2 = 0.798 | 813.95 | 4.045
293.15 K, x2 = 0.901 | 814.45 | 4.044
298.15 K, x2 = 0 | 805.35 | 3.398
298.15 K, x2 = 0.1 | 806.03 | 3.388
298.15 K, x2 = 0.2 | 806.7 | 3.382
298.15 K, x2 = 0.298 | 807.31 | 3.377
298.15 K, x2 = 0.4 | 807.93 | 3.373
298.15 K, x2 = 0.5 | 808.54 | 3.371
298.15 K, x2 = 0.601 | 809.14 | 3.377
298.15 K, x2 = 0.699 | 809.7 | 3.385
298.15 K, x2 = 0.798 | 810.24 | 3.402
298.15 K, x2 = 0.901 | 810.78 | 3.434
303.15 K, x2 = 0 | 801.24 | 2.82
303.15 K, x2 = 0.1 | 801.98 | 2.815
303.15 K, x2 = 0.2 | 802.7 | 2.815
303.15 K, x2 = 0.298 | 803.36 | 2.819
303.15 K, x2 = 0.4 | 804.02 | 2.833
303.15 K, x2 = 0.5 | 804.67 | 2.852
303.15 K, x2 = 0.601 | 805.32 | 2.875
303.15 K, x2 = 0.699 | 805.92 | 2.901
303.15 K, x2 = 0.798 | 806.5 | 2.932
303.15 K, x2 = 0.901 | 807.06 | 2.974
308.15 K, x2 = 0 | 797.05 | 2.336
308.15 K, x2 = 0.1 | 797.85 | 2.354
308.15 K, x2 = 0.2 | 798.63 | 2.373
308.15 K, x2 = 0.298 | 799.35 | 2.392
308.15 K, x2 = 0.4 | 800.06 | 2.416
308.15 K, x2 = 0.5 | 800.76 | 2.442
308.15 K, x2 = 0.601 | 801.45 | 2.472
308.15 K, x2 = 0.699 | 802.11 | 2.504
308.15 K, x2 = 0.798 | 802.74 | 2.54
308.15 K, x2 = 0.901 | 803.33 | 2.587
313.15 K, x2 = 0 | 792.78 | 1.99
313.15 K, x2 = 0.1 | 793.65 | 2.016
313.15 K, x2 = 0.2 | 794.49 | 2.039
313.15 K, x2 = 0.298 | 795.28 | 2.063
313.15 K, x2 = 0.4 | 796.05 | 2.09
313.15 K, x2 = 0.5 | 796.8 | 2.119
313.15 K, x2 = 0.601 | 797.54 | 2.152
313.15 K, x2 = 0.699 | 798.25 | 2.188
313.15 K, x2 = 0.798 | 798.92 | 2.226
313.15 K, x2 = 0.901 | 799.56 | 2.272
318.15 K, x2 = 0 | 788.42 | 1.706
318.15 K, x2 = 0.1 | 789.37 | 1.726
318.15 K, x2 = 0.2 | 790.29 | 1.751
318.15 K, x2 = 0.298 | 791.13 | 1.778
318.15 K, x2 = 0.4 | 791.96 | 1.809
318.15 K, x2 = 0.5 | 792.77 | 1.842
318.15 K, x2 = 0.601 | 793.58 | 1.878
318.15 K, x2 = 0.699 | 794.34 | 1.916
318.15 K, x2 = 0.798 | 795.06 | 1.956
318.15 K, x2 = 0.901 | 795.75 | 1.997
323.15 K, x2 = 0 | 783.99 | 1.472
323.15 K, x2 = 0.1 | 785.02 | 1.498
323.15 K, x2 = 0.2 | 786.01 | 1.522
323.15 K, x2 = 0.298 | 786.92 | 1.546
323.15 K, x2 = 0.4 | 787.82 | 1.575
323.15 K, x2 = 0.5 | 788.69 | 1.607
323.15 K, x2 = 0.601 | 789.56 | 1.642
323.15 K, x2 = 0.699 | 790.38 | 1.679
323.15 K, x2 = 0.798 | 791.17 | 1.718
323.15 K, x2 = 0.901 | 791.88 | 1.762
328.15 K, x2 = 0 | 779.46 | 1.306
328.15 K, x2 = 0.1 | 780.57 | 1.317
328.15 K, x2 = 0.2 | 781.64 | 1.335
328.15 K, x2 = 0.298 | 782.65 | 1.359
328.15 K, x2 = 0.4 | 783.63 | 1.387
328.15 K, x2 = 0.5 | 784.57 | 1.418
328.15 K, x2 = 0.601 | 785.5 | 1.45
328.15 K, x2 = 0.699 | 786.38 | 1.486
328.15 K, x2 = 0.798 | 787.22 | 1.524
328.15 K, x2 = 0.901 | 787.98 | 1.564

CCC(C)CO (stereo not given) [2-methyl-1-butanol] + CCCCCO
Details | mass density [kg/m3] | viscosity [mPa·s]
288.15 K, x2 = 0 | 823.35 | 6.439
288.15 K, x2 = 0.1 | 822.86 | 6.245
288.15 K, x2 = 0.2 | 822.37 | 6.036
288.15 K, x2 = 0.3 | 821.88 | 5.819
288.15 K, x2 = 0.399 | 821.4 | 5.595
288.15 K, x2 = 0.5 | 820.92 | 5.361
288.15 K, x2 = 0.6 | 820.44 | 5.128
288.15 K, x2 = 0.699 | 819.96 | 4.916
288.15 K, x2 = 0.799 | 819.5 | 4.741
288.15 K, x2 = 0.899 | 819.03 | 4.697
293.15 K, x2 = 0 | 819.64 | 5.3
293.15 K, x2 = 0.1 | 819.15 | 5.146
293.15 K, x2 = 0.2 | 818.66 | 4.998
293.15 K, x2 = 0.3 | 818.19 | 4.837
293.15 K, x2 = 0.399 | 817.71 | 4.677
293.15 K, x2 = 0.5 | 817.24 | 4.516
293.15 K, x2 = 0.6 | 816.77 | 4.362
293.15 K, x2 = 0.699 | 816.3 | 4.196
293.15 K, x2 = 0.799 | 815.84 | 4.062
293.15 K, x2 = 0.899 | 815.38 | 4.046
298.15 K, x2 = 0 | 815.85 | 4.501
298.15 K, x2 = 0.1 | 815.37 | 4.383
298.15 K, x2 = 0.2 | 814.9 | 4.255
298.15 K, x2 = 0.3 | 814.43 | 4.129
298.15 K, x2 = 0.399 | 813.97 | 3.988
298.15 K, x2 = 0.5 | 813.51 | 3.848
298.15 K, x2 = 0.6 | 813.05 | 3.72
298.15 K, x2 = 0.699 | 812.6 | 3.604
298.15 K, x2 = 0.799 | 812.15 | 3.507
298.15 K, x2 = 0.899 | 811.7 | 3.489
303.15 K, x2 = 0 | 812.12 | 3.825
303.15 K, x2 = 0.1 | 811.64 | 3.725
303.15 K, x2 = 0.2 | 811.17 | 3.63
303.15 K, x2 = 0.3 | 810.71 | 3.518
303.15 K, x2 = 0.399 | 810.26 | 3.402
303.15 K, x2 = 0.5 | 809.8 | 3.287
303.15 K, x2 = 0.6 | 809.34 | 3.197
303.15 K, x2 = 0.699 | 808.89 | 3.114
303.15 K, x2 = 0.799 | 808.45 | 3.051
303.15 K, x2 = 0.899 | 808 | 3.018
308.15 K, x2 = 0 | 808.29 | 3.265
308.15 K, x2 = 0.1 | 807.82 | 3.176
308.15 K, x2 = 0.2 | 807.36 | 3.099
308.15 K, x2 = 0.3 | 806.92 | 3.007
308.15 K, x2 = 0.399 | 806.47 | 2.921
308.15 K, x2 = 0.5 | 806.03 | 2.831
308.15 K, x2 = 0.6 | 805.58 | 2.765
308.15 K, x2 = 0.699 | 805.15 | 2.701
308.15 K, x2 = 0.799 | 804.71 | 2.66
308.15 K, x2 = 0.899 | 804.28 | 2.648
313.15 K, x2 = 0 | 804.41 | 2.783
313.15 K, x2 = 0.1 | 803.95 | 2.717
313.15 K, x2 = 0.2 | 803.51 | 2.657
313.15 K, x2 = 0.3 | 803.07 | 2.59
313.15 K, x2 = 0.399 | 802.64 | 2.528
313.15 K, x2 = 0.5 | 802.21 | 2.468
313.15 K, x2 = 0.6 | 801.78 | 2.419
313.15 K, x2 = 0.699 | 801.35 | 2.365
313.15 K, x2 = 0.799 | 800.93 | 2.327
313.15 K, x2 = 0.899 | 800.51 | 2.323
318.15 K, x2 = 0 | 800.47 | 2.379
318.15 K, x2 = 0.1 | 800.02 | 2.329
318.15 K, x2 = 0.2 | 799.6 | 2.281
318.15 K, x2 = 0.3 | 799.18 | 2.232
318.15 K, x2 = 0.399 | 798.76 | 2.187
318.15 K, x2 = 0.5 | 798.34 | 2.141
318.15 K, x2 = 0.6 | 797.93 | 2.103
318.15 K, x2 = 0.699 | 797.52 | 2.07
318.15 K, x2 = 0.799 | 797.11 | 2.041
318.15 K, x2 = 0.899 | 796.7 | 2.028
323.15 K, x2 = 0 | 796.47 | 2.06
323.15 K, x2 = 0.1 | 796.04 | 2.016
323.15 K, x2 = 0.2 | 795.63 | 1.98
323.15 K, x2 = 0.3 | 795.22 | 1.942
323.15 K, x2 = 0.399 | 794.82 | 1.908
323.15 K, x2 = 0.5 | 794.42 | 1.877
323.15 K, x2 = 0.6 | 794.02 | 1.85
323.15 K, x2 = 0.699 | 793.63 | 1.823
323.15 K, x2 = 0.799 | 793.24 | 1.801
323.15 K, x2 = 0.899 | 792.85 | 1.791
328.15 K, x2 = 0 | 792.41 | 1.787
328.15 K, x2 = 0.1 | 792 | 1.753
328.15 K, x2 = 0.2 | 791.6 | 1.725
328.15 K, x2 = 0.3 | 791.22 | 1.697
328.15 K, x2 = 0.399 | 790.84 | 1.669
328.15 K, x2 = 0.5 | 790.46 | 1.645
328.15 K, x2 = 0.6 | 790.08 | 1.624
328.15 K, x2 = 0.699 | 789.7 | 1.609
328.15 K, x2 = 0.799 | 789.33 | 1.598
328.15 K, x2 = 0.899 | 788.96 | 1.594
